The text below walks through data of patent US11725027B2, “Hypersensitive response elicitor-derived peptides and use thereof” (priority 2016, dated 2023).

The test system of one data set is soy. Kind of data set: Drought resistance in soy (greenhouse, spray). The settings on record: soy under cyclic drought. The class given is in vivo. The method, then:
The effectiveness of peptide treatment in reducing drought stress was assessed in soy. 3.5 inch pots were filled with Sunshine #1 soil (SunGro Horticulture), fertilized with a 20-10-20 mixture. The soil was soaked and drained overnight. Seeds (soy, manually inspected to ensure uniform seed size) were planted at a depth of half inch for germination. Plants were grown in a greenhouse under 16 hour light days at >70° F. and 8 hour dark nights at >65° F. Prior to drought conditions, the plants were well-watered.
When the plants reached the growth stage when first trifoliate expanded, plants were culled to achieve a uniform height (abnormally large and small plants were removed). Plants were then randomly assigned to control (spray without peptide) or treatment (spray with peptide) groups and heights were measured. Peptide was made up in a solution of 0.2 ug/ml or 2 ug/ml in distilled water+0.04% Tween-20, and applied as a fine mist from a spray bottle until the solution drips from the leaves. After the peptide solutions were dried, the plants were again randomized in a randomized complete block design. Cyclic drought stress was initiated after the peptide treatment. Plants were subjected to at least three drought cycles of drought stress (3-5 days of withholding water and 1 day irrigated with saturating amount of water) before harvesting.
The drought test phase ended after 2-3 weeks. At that time, the plant height was again measured and the growth rate was calculated as the difference between this and the previously-recorded height. The above-ground part portions of the plants were harvested and weighed to obtain fresh weight. The above-ground portion was also dried in an oven at 70° C. for 72 hours to obtain dry weight. All calculations were compared with matched untreated control plants.

Data set [1] has as its system Nicotiana tabacum cultivar xanthi plants. Kind of data set: Hypersensitive Response (HR) induction in tobacco leaves. On the set-up: key to HR: Plants are considered HR-positive (“HR+”) if they exhibit wide-spread macroscopic cell death visible to the naked eye, accompanied by wilting and browning of the affected tissue within 48 hours; Plants are considered HR-negative (“HR−”) if they exhibit no discernible wilting or tissue death observable by naked eye. The settings on record: tobacco leaf infused with 500, 250, 125, 62.5, 31.25 μg/ml peptide solutions, scored over 48 hours. The class given is in vivo. The source says:
A property of a peptide to elicit a hypersensitive response, or not, upon infiltration or application of the peptide to plant tissues can be measured by applying the peptide in dry powder form or in solution form to a plant, particularly though not exclusively a plant leaf.
The minimal eliciting sequence derived from was developed based on the sequence of the hrex gene from Xanthomonas campestris pv. pelargonii. A number of truncated and mutated sequences were synthesized and tested for Hypersensitive Response induction (results in Table 4). HR in tobacco was tested as described in Wei, Science 257:85-88 (1992), which is hereby incorporated by reference in its entirety. Briefly, peptides were dissolved at a concentration of 500 μg/ml in aqueous solution. Four serial dilutions were performed with an equal volume of water, yielding peptide samples at 500, 250, 125, 62.5, 31.25 μg/ml peptide solutions. Nicotiana tabacum cultivar xanthi plants were used at 5-7 weeks old (preflowering). Leaves were lightly punctured with a toothpick in a middle leaf panel. Peptide solutions were then infused via needle-less syringe into the wound, filling the panel. Each peptide sample was infused into a leaf of 2 different plants. The leaves were observed and scored over the next 48 hours for withering and browning, lesions typical of programmed cell death. These studies had […] main goals: (1) determine the minimal sequence sufficient for HR elicitation (2) increase the solution stability of the peptides; (3) make disruptive mutations to verify the residues which are most important for HR elicitation; (4) make conservative mutations to identify the degree of specificity for particular amino acids.

The nature of data set [2]: Solution (formulation) stability at 50° C. (HPLC). It counts as physicochemical. The note with it: 0.09% AI, 0.25% Proxel GXL. Here is the method: Peptides solutions were analyzed by HPLC for % loss of the peptide signal over time during incubation at 50° C., relative to the time 0 sample. Peptides were analyzed until the remaining peptide concentration decreased to 80% of original (20% degradation).

The test system of another data set is corn. As to the kind of experiment: Drought resistance in corn (greenhouse, spray). It counts as in vivo. The settings on record: corn under drought. Here is the method:
The effectiveness of peptide treatment in reducing drought stress was assessed in corn and soy. 3.5 inch pots were filled with Sunshine #1 soil (SunGro Horticulture), fertilized with a 20-10-20 mixture. The soil was soaked and drained overnight. Seeds (either corn or soy, manually inspected to ensure uniform seed size) were planted at a depth of 1 inch for germination. Plants were grown in a greenhouse under 16 hour light days at >70° F. and 8 hour dark nights at >65° F. Prior to drought conditions, the plants were well-watered.
When the plants reached the V1 stage, plants were culled to achieve a uniform height (abnormally large and small plants were removed). Plants were then randomly assigned to control (spray without peptide) or treatment (spray with peptide) groups and heights were measured. Peptide was made up in a solution of 0.2 ug/ml or 2 ug/ml in distilled water+0.01% Tween-20, and applied as a fine mist from a spray bottle until the solution drips from the leaves. After the peptide solutions were dried, the plants were again randomized in a randomized complete block design. Drought stress was initiated after the peptide treatment. This was caused by maintaining the water level at 25-50% of the maximum capacity for water (capacity was decided as the weight of the pot filled with saturated soil minus the weight of the filled pot prior to adding water).
The drought test phase ended after 2-3 weeks. At that time, the plant height was again measured and the growth rate was calculated as the difference between this and the previously-recorded height. The above-ground part portions of the plants were harvested and weighed. The above-ground portion was also dried in an oven at 70° C. for 72 hours and a dry weight was obtained. All calculations were compared with matched untreated control plants.

The conditions of data set [3]: 50° C.; for stability in buffer solutions: 50 mM buffers. Here is the method:
Briefly, the stability and resistance to chemical degradation of peptides can be assessed as follows using peptide samples having an initial purity of at least about 80%, at least about 82%, at least about 84%, at least about 86%, at least about 88%, at least about 90%, at least about 92%, at least about 94%, at least about 96%, or at least about 98%. For water stability, the peptide is dissolved directly in de-ionized water. For chemical degradation tests, the peptide is dissolved in an aqueous solution containing 50 mM pH buffer and 0.25% Proxel GXL. Exemplary pH buffers include, without limitation: (i) Citrate pH 5.6; (ii) MES pH 6.0; (iii) MOPS pH 6.5; (iv) imidazole pH 7.5; (v) Citrate pH 7.2; (vi) EDDS, pH 7.3; (vii) EDTA pH 8.0; (viii) sodium phosphate pH 8.0; or (ix) TES pH 8.0. Peptides are first dissolved in the aqueous solution at a concentration of 0.5 mg/ml. The samples are incubated at 50° C. to allow for accelerated degradation. An initial sample of the peptide is removed, diluted 10× with water, and analyzed by reverse-phase HPLC. Briefly, 20 μl of the sample is injected into the solvent flow of an HPLC instrument and analyzed on a C18 HPLC column (YMC ProPack C18, YMC, Japan, or C18 Stablebond, Agilent Technologies, USA) using either a triethylamine phosphate in water/acetonitrile gradient or a 0.1% TFA in water/0.1% TFA in acetonitrile gradient to separate different peptide species. Eluting peptides are monitored by UV absorbance at 218 nm and quantified based on the area under the peak. The area under the peak for the initial peptide sample is treated as the standard for relative quantification in subsequent runs. At regular intervals (e.g., 1, 3, 7, 10, and 14 days), each peptide sample is surveyed and analyzed by HPLC as described above.
Stability against chemical degradation was assessed in various pH buffers by creating 0.2% AI solutions of pure, chemically synthesized peptide in deionized water, 0.25% weight to volume of Proxel® GXL (biocide), and 50 millimolar (mM) of nine buffers (separately) as follows: Citrate, pH 5.6, MES pH 6.0, MOPS pH 6.5, Citrate pH 7.2, EDDS pH 7.3, imidazole pH 7.5, EDTA pH 8, Phosphate pH 8, and TES pH 8.

Data set [4] deals with tobacco mosaic virus (TMV). As to the kind of experiment: Induction of resistance to tobacco mosaic virus in tobacco. The class given is in vivo. The note with it: % decline in TMV lesions vs UTC, spray 20 ug/ml. Here is the method:
Peptides were tested for the induction of resistance to tobacco mosaic virus (TMV) in tobacco. Briefly, three tobacco plants at 6-8 weeks old were selected per group (samples and controls). The bottom-most leaf of the plant was covered and the plant was sprayed with a solution of water (untreated control—UTC), peptide, or Proact (positive control). The spray was applied until the leaves were fully wetted, indicated by liquid dripping from the leaves. The plants were then allowed to dry and the leaf covering was removed.
Three days post-treatment, the previously-covered leaf and a leaf on the opposite side of the plant were then lightly dusted with diatomaceous earth and 20 ul of a 1.7 ug/ml solution of purified tobacco mosaic virus was applied. The TMV solution was then spread across the leaf surface by lightly rubbing solution and the diatomaceous earth across the surface of the leaves. Two minutes after inoculation, the diatomaceous earth was rinsed off the leaves with water. 3 days after TMV inoculation, the leaves were scored based on the number of TMV lesions observed. The leaf was also scored for signs of the hypersensitive response, including yellowing and wilting of the affected leaves.
Effectiveness described in Table 6 refers to the % decline in TMV lesions on treated vs UTC plants. A reduction of TMV on covered leaves indicates a systemic immune response in the plant while reduction on uncovered leaves indicates a local response. Asterisks indicate that the P-value derived from a T-test was <0.05.

Data set [5] in a line: Stability of material bulked with maltodextrin and buffer at room temperature. The class given is physicochemical. The settings on record: bulked with maltodextrin and phosphate buffer (pH 8.0) or citrate buffer (pH 7.2), 48 hours. Here is the method:
Samples of material P5, P5-21, and P5-25 bulked with maltodextrin and either phosphate buffer (pH 8.0) or citrate buffer (pH 7.2) were tested for stability at room temperature for 48 hours.

Setting [6] is: EDTA buffer pH 8.0, 50 mM, after 14 days.

Where two headings read alike, the source gives them in different places. Marks after values point to notes of the source that are not given here. No end group written: not given here. A value given as a limit tells only on which side of the number the result lay.

For SEEQLDQLLLAFIAAALQEE [Peptide P5-27], in the data set with soy (2.0 ug/ml), the “Dry Weight Increase (%)” value was determined as 2.04% and the “Fresh Weight Increase (%)” value is recorded as 4.07* %. Also, the HR result in data set [1] is recorded as “-”. The “Time before 20% degradation” value in data set [2] (50 mM imidazole pH 7.5, 50% IPA) turned out to be 50 days.

On to NQGISEKQQLDLLLAFIAAALQQ [Peptide P5-76], for which, in data set [1], the HR result was “Weak+”. Also, in the data set on corn (0.2 ug/ml), the “Dry Weight Increase (%)” value is recorded as 5.33* % and the “Fresh Weight Increase (%)” value came to 2.00%.

SEEEQLDLLLMFIMMMLQEE [Peptide P5-33]: in the data set with soy (2.0 ug/ml), the “Dry Weight Increase (%)” value is listed as 5.02** % and the “Fresh Weight Increase (%)” value stood at 4.10%. Further, in data set [1], the HR result was “+”.

In the case of LDLLLAFIAAALEEEEEE [Peptide P5-9], the “stability in buffer solutions” value in data set [3] was “better stability compared with P5”. Besides, the peptide remaining entry in data set [3] (citrate pH 7.2, 50 mM, after 14 days) is “above 80%”; in data set [3] (phosphate pH 8.0, 50 mM, after 14 days), “above 80%”.

Regarding SEEQLDQLLLMFIMMMLQQEE [Peptide P5-46], in data set [4] (covered leaf (systemic response)), the “Effectiveness Covered (%)” value is 74* %. The “Effectiveness Uncovered (%)” value in data set [4] (uncovered leaf (local response)) is 85* %. Besides, the HR result in data set [1] was “+”. Also, in the data set on corn (2.0 ug/ml), the “Dry Weight Increase (%)” value is 3.71% and the “Fresh Weight Increase (%)” value is recorded as 9.05** %.

SAGSEQQEDLLLMFIMMMLQQ [Peptide P5-35]: the HR entry in data set [1] is “Weak+”. In addition, in the data set with corn (2.0 ug/ml), the “Dry Weight Increase (%)” value is recorded as −6.57* % and the “Fresh Weight Increase (%)” value is given as −6.05* %.

Regarding NQGISEKQQLDLLLMFIMMMLQQ [Peptide P5-75], the “Dry Weight Increase (%)” value in the data set with soy (0.2 ug/ml) turned out to be 3.73%; in the data set with soy (2.0 ug/ml), 4.37%. For the same sequence, the “Fresh Weight Increase (%)” value with soy (0.2 ug/ml) was 8.78** %; in the data set with soy (2.0 ug/ml) it was 8.55** %. The HR result in data set [1] is “Strong+”.

SAGSEQQLDLLLMFIMMMLQQ [Peptide P5]: the “degradation (more than 5% loss)” value in data set [5] is listed as “No significant degradation”. Further, in data set [2] (50 mM phosphate pH 8.0, 30% IPA, 5 mM DTPA), the “Time before 20% degradation” value is on record as 21 days. In addition, the “stability in buffer solutions” value in data set [3] was “generally poor stability”. Besides, the peptide remaining entry in data set [3] (setting [6]) is listed as “about 40%”.

In the case of SEEQLELLLAFIAAALQQEE [Peptide P5-21], the “degradation (more than 5% loss)” value in data set [5] is recorded as “No significant degradation”. Also, the “Time before 20% degradation” value in data set [2] (50 mM citrate pH 7.2, 20% IPA) was determined as 41 days. Also, in data set [3] (setting [6]), the peptide remaining entry was “around 80%”. Besides, in data set [3] (all buffers pH>7.0 except EDTA, 50 mM, after 14 days), the “peptide remaining (stability)” value was greater than 90%.
